Results on one substance are retold here after patent publication US11629192B2, “Methods and pharmaceutical compositions for the treatment of diseases mediated by the NRP-1/OBR complex signaling pathway” (INSERM (Institut National de la Sante et de la Recherche …, priority 2014, dated 2023).

“Also recorded” adds a separate entry of the source.

The subject of assay [1] is OBR and STAT3 phosphorylation. The assay can be described thus: OBR and STAT3 phosphorylation in cytoplasmic and nuclear fractions. Type of assay: cell-based. The note with it: Leptin stimulation. An excerpt: Since both NRP-1/OBR complex formation and NRP-1 phosphorylation were abolished by CK2 inhibition, we supposed that OBR signaling pathway could be also affected by CK2 inhibition.

The next assay relates to MDA-MB-231 cells. Put plainly: MDA-MB-231 cell migration / transmigration through insert. Format: cell-based, human. An excerpt: (§1) FIG. 5. NRP-1, OBR and leptin interactions confirmation using a Bio-Layer Interferometry (BLI) technology (fortebio.com/bli-technology.html): A-Leptin (OB) interaction to OBR is used as a positive control. Human neuropilin-1 (hNRP-1) interact with human OBR with a high affinity and specifically with human leptin (hOB) but not with murine leptin (mOB). VEGF165 binding to hNRP-1 is used as a positive control. B-Leptin and Avastin association increases MDA-MB231 cells transmigration through […] pore Insert. Avastin treatment may prevent a negative feedback control by VEGF of the pro-angiogenic signaling pathway of Leptin. VEGF binds to OBR which confirms our hypothesis that should be more investigated.
(§2) First MBA-MB-231 and T47D breast cancer cells line were selected for their high and undetectable NRP-1 expression respectively and the expression of Leptin receptor (OBR). In order to investigate NRP-1 and Leptin association in breast cancer cell line migration, we proceeded to NRP-1 expression silencing in MDA-MB-231 using either siRNA or shRNA approaches or NRP-1 overexpression in T47D. […] In contrast Leptin induced MDA-MB-231 migration that was decreased in siNRP-1 conditions. The in vitro data were confirmed in vivo by MDA-MB-231 and T47D xenografts in Nude mice. Modulation of NRP-1 expression either by shRNA silencing in MDA-MB-231 or by overexpression in T47D induced an increase of proliferation and a decrease of lymph node infiltration by MDA-MB-231-shNRP-1 and a decrease of proliferation and an increase of lymph node infiltration by T47D-NRP-1-RFP in mice treated with Leptin.
Leptin induced in vitro MDA-MB-231 migration that was decreased by NRP-1 repression using siRNA. Lel Xu et al have reported a direct evidence of NRP-1 up-regulation in tumors treated by anti-VEGF (Bevacizumab). […] This observation can be a first explanation of breast cancer therapy failure (increase of Progression survival while decreasing overall survival) by Bevacizumad and that was revoked by the FDA (Food and Drugs Administration, US).

Assay [2] concerns T47D-NRP-1-RFP xenografts. Put plainly: T47D-NRP-1-RFP xenografts in Nude mice. Type of assay: in vivo.
Excerpt: as §2
This need to be more investigated and may be a new strategy for combined anti-Leptin and anti-VEGF therapies in breast cancer. […] In vitro and in vivo data are a direct evidence of NRP-1 and Leptin association in breast cancer cell line migration. This implication of Leptin and NRP-1 are in agreement of published data but with no association between Leptin and NRP-1. […]

Assay [3] addresses Human neuropilin-1 (hNRP-1) (Homo sapiens, UniProt O14786). Put plainly: Bio-Layer Interferometry (BLI) interaction with hNRP-1. Type of assay: binding.
Excerpt: as §1

Another assay has as its system P-NRP-1. Put plainly: NRP-1 (P-NRP-1) and OBR phosphorylation in MDA-MB-231, immunostaining / coimmunoprecipitation. Format: cell-based, human. The note with it: MDA-MB-231 serum starved, Leptin (10 nM). The source says: Beside the modulation of the NRP-1/OBR complex formation by Leptin and OBR phosphorylation, we postulated a possible phosphorylation of NRP-1 that can regulate the translocation of the complex to the nucleus. Two putative phosphorylation sites of NRP-1 have been reported with no more investigation. The first one at the extracellular B domain as reported by Shintani et al in 2009 with no antibody available and the second one at the Threonine 916 located in the cytoplasmic domain as it was reported by Kyle et al in 2011. Since a specific antibody against P-NRP-1 at the T916 was available, we investigated by coimmunoprecipitation the detection of P-NRP-1 in MDA-MB-231 after serum starvation and stimulation by Leptin (10 nM). […] To confirm this phosphorylation state, we investigated the possible implication of a Serine/threonine Kinase CK2 using one of its first chemical inhibitor (DRB). In serum starved condition, P-NRP-1 was detected as polarized spot in the cytoplasm and the nucleus of MDA-MB-231. […] The inhibition was specific since, in stimulated condition combined with DMSO at the same dilution of DRB, we were able to observe a diffuse nuclear P-NRP-1 staining.

As for “Leptin: small non glycosylated protein, ligand of OBR”, the “OBR and STAT3 phosphorylation” value in assay [1] is listed as “increase”. The “MDA-MB-231 migration induced by Bevacizumab, effect of Leptin” value with MDA-MB-231 cells (10 μg/ml of Bevacizumab plus Leptin) is reported as “increased”. The MDA-MB-231 migration entry in the assay with MDA-MB-231 cells (in vitro, Leptin alone) was “increased; also recorded: induced”. Also, in assay [2] (Leptin treatment, human KL1 staining), the “lymph node infiltration by T47D-NRP-1-RFP” value is reported as “significantly increased”. Further, in assay [2] (T47D overexpressing NRP-1 xenograft treated with Leptin), the tumor growth result is given as “tumor growth decrease”. Besides, in assay [3], the “interaction with hNRP-1” value is on record as “interact”. Moreover, the “NRP-1 phosphorylation (T916)” value in the assay with P-NRP-1 is on record as “phosphorylated”.
